Results reported in patent publication US8507017B2, “Method for decreasing nicotine and other substance use in humans” (Arizona Health Consulting Group, LLC, priority 2003, dated 2013).

Tests used:
[1] = target: T1, α4β2-nAChR (Homo sapiens, UniProt P17787+P43681); test: whole-cell patch-clamp recording of nicotine-induced currents, α4β2-nAChR expressed in SH-EP1 cells; format: cell-based; conditions: for effect on α4β2-nAChR mediated currents (peak current response, steady-state component): 0.1 mM of each Magnoliidae compound, FIG. 6A
T1 construct: expressed in transfected cells; host or cells: SH-EP1 human epithelial cell line (nAChR-null)
T1 sequence (P43681 29-627 limits assumed): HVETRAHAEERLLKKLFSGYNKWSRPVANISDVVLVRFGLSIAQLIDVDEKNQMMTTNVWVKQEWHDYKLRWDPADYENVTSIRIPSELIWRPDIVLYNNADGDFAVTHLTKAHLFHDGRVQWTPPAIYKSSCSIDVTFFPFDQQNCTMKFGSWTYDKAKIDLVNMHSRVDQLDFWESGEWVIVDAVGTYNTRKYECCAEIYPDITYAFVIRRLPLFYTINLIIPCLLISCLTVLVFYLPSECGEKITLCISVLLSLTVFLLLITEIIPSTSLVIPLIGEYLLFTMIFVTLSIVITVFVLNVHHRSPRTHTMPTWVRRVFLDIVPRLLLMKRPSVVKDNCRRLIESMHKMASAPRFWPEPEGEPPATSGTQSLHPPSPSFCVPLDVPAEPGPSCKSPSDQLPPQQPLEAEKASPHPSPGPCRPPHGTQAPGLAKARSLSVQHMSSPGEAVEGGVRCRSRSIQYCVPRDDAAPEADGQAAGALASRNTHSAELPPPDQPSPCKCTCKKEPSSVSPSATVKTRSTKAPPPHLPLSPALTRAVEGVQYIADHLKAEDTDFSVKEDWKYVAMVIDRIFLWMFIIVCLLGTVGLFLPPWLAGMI
T1 sequence (P17787 26-502): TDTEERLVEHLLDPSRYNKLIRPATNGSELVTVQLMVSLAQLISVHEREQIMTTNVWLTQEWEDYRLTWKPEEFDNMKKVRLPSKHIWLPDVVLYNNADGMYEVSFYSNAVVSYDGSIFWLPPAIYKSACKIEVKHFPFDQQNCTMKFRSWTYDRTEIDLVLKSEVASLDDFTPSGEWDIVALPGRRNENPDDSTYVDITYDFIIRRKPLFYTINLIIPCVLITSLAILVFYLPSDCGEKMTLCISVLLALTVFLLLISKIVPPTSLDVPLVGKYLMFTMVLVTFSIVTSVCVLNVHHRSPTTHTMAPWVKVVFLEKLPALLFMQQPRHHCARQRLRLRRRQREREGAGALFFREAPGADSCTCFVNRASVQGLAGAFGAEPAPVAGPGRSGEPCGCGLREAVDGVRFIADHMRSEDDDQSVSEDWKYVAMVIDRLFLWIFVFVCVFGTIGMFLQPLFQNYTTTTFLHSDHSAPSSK
Source text: (§1) In FIGS. 6-9, whole-cell patch-clamp recording techniques in voltage-clamp mode were used to detect changes in current. Conventional whole-cell current recording coupled with techniques for fast application and removal of agonist (9 channel multi-barrel pipette), were applied in this study. Briefly, cells plated on poly-lysine-coated 35-mm culture dishes were placed on the stage of an inverted microscope (Olympus iX7, Lake Success, N.Y.) and continuously superfused with standard external solution (2 ml/min). Glass microelectrodes (3-5 MΩ resistance between pipette and extracellular solutions) were used to form tight seals (>1 GΩ) on the cell surface until suction was applied to convert to conventional whole-cell recording.
(§2) Both pipette and whole current capacitance were minimized and the series resistance was routinely compensated to 80%. The access resistance before series resistance compensation was between 10-20 MΩ. Data acquisition and analyses were done using Pclamp8 (Axon Instruments), and results were plotted using Origin 5.0 (Microcal, North Hampton, Mass.).
Data usually were fit over the 10-90% period from inward current peak until agonist exposure was terminated (5-10 sec). The experimental data are presented as means±standard errors, and comparisons of different conditions were analyzed for statistical significance using the Student's t-tests. All experiments were performed at room temperature (22±1° C.). A pipette electrode solution comprising TrisPO4dibasic 110 milli-Molar (mM), Trisbase 28 mM, Ethylenediaminetetraacetate (EDTA) 11 mM, Magnesium Chloride (MgCl2) 2 mM, Calcium Chloride (CaCl2) 0.5 mM, and Sodium-Adenosine Triphosphate (Na-ATP) 4 mM, resulting in a pH of 7.3, was used.

[2] = target: T2, (Homo sapiens, UniProt P30926+P43681); test: whole-cell patch-clamp recording of nicotinic responses, α4α4 nAChR subtype; format: cell-based; conditions: THB 0.1 mM; nicotine 1.0 μM; FIG. 6B (2)
T2 construct: expressed in transfected cells; host or cells: SH-EP1 human epithelial cell line
T2 sequence (P43681 27-627): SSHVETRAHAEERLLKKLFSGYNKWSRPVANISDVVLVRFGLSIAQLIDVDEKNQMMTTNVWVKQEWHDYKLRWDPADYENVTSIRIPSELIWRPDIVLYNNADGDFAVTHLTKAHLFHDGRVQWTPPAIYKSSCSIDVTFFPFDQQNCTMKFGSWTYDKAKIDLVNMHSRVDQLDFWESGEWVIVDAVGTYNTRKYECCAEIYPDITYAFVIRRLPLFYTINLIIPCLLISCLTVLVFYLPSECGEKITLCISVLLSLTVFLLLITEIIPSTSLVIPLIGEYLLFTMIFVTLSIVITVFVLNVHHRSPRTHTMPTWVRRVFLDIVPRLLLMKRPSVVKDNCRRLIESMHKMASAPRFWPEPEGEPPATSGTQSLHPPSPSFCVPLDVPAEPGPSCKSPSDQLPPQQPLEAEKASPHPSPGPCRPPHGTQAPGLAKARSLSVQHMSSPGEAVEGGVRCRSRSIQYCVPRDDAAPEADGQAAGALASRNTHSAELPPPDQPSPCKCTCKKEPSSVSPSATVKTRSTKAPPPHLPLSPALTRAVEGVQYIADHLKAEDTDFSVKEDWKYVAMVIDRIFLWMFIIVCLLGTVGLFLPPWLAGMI
T2 sequence (P30926 22-498): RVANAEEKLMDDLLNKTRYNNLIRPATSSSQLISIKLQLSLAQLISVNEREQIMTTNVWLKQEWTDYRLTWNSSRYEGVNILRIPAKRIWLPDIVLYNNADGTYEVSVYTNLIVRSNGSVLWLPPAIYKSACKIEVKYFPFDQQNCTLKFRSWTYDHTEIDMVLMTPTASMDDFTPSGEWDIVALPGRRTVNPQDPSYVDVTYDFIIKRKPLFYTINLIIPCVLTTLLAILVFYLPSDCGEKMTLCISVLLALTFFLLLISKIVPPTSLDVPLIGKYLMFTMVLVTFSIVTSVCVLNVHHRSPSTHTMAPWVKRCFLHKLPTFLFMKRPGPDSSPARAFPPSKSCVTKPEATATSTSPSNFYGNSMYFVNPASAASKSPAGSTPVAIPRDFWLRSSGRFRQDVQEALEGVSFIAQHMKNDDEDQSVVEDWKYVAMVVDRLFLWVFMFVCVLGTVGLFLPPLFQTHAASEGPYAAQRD
Source text: as §1, §2
(§3) Data usually were fit over the 10-90% period from inward current peak until agonist exposure was terminated (5-10 sec). The experimental data are presented as means±standard errors, and comparisons of different conditions were analyzed for statistical significance using the Student's t-tests. […]

[3] = system: D1-type and D2-type DA receptor; conditions: cited from earlier work
[4] = target: T3, α7-nAChRs (Homo sapiens, UniProt P36544); test: whole-cell patch-clamp recording of nicotinic responses, α7 nAChR subtype; format: cell-based; conditions: THB 0.1 mM; nicotine 1.0 μM; FIG. 6B (3)
T3 construct: expressed in transfected cells; host or cells: SH-EP1 human epithelial cell line (stated generally, not specifically for α7)
T3 sequence (P36544 23-502): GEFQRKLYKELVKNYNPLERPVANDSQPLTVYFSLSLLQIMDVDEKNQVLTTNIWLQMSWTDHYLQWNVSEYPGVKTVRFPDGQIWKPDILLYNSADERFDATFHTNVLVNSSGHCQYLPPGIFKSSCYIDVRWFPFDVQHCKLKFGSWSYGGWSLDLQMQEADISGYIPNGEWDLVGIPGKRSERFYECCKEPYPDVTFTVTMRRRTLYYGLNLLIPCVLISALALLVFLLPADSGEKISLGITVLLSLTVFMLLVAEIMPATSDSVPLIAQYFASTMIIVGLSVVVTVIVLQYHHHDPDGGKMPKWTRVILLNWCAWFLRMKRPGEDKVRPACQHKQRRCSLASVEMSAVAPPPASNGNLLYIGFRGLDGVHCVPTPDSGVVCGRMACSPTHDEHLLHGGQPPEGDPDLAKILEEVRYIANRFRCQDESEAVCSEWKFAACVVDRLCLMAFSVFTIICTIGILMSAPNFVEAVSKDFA
Source text: as §1, §2, §3

[5] = target: T4, D2 receptor (Rattus norvegicus, UniProt P61169); conditions: cited from earlier work
T4 construct: host or cells: normal rats, in vivo
T4 sequence (P61169 whole entry): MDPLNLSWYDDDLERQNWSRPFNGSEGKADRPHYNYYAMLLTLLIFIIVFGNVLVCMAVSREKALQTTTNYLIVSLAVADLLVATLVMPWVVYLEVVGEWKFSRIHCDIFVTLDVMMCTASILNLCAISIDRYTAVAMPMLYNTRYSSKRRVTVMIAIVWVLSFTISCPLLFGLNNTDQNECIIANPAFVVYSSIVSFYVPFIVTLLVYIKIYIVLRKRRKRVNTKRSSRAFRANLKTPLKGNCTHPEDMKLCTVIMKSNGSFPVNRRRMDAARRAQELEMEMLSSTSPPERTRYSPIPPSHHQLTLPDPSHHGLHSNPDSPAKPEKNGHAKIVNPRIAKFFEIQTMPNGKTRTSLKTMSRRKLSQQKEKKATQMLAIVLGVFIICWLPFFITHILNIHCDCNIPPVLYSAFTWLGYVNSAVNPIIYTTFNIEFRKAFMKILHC

[6] = target: T5, D1 receptors (Rattus norvegicus, UniProt P18901); conditions: rats with unilateral nigral lesion (DA receptor super sensitivity in striatum); cited from earlier work
T5 construct: host or cells: rats with unilateral nigral lesion, in vivo (striatum)
T5 sequence (P18901 whole entry): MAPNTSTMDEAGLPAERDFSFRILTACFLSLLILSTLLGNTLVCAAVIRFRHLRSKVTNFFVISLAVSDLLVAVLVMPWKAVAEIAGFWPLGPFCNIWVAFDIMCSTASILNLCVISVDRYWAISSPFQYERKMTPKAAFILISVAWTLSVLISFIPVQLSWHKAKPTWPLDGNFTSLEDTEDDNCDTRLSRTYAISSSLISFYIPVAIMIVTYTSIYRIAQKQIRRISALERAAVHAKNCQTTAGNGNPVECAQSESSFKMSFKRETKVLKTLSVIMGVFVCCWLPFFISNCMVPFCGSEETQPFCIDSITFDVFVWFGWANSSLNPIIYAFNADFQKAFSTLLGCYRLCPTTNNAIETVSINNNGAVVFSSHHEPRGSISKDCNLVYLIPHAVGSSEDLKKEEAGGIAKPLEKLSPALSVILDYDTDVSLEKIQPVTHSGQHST

Row | SMILES | effect on α4β2-nAChR mediated currents (peak current response, steady-state component) [1] | effect on nicotinic response mediated by α4α4 subtype [2] | effect on D1-type and D2-type DA receptor binding [3] | acute desensitization of nicotine-induced currents ([1]; THB 30 μM, holding potentials −40 mV and −80 mV, FIG. 9A-9B) | effect on nicotinic response mediated by α4β2 subtype ([1]; THB 0.1 mM, nicotine 1.0 μM, FIG. 6B (1)) | effect on peak (Ip) and steady-state (Is) components of nicotinic responses at different THB concentrations ([1]; THB 1.0, 10, 100 μM, nicotine 1.0 μM, FIG. 7A-7C) | voltage dependence of suppression of nicotinic response ([1]; depending on holding potential VH) | effect on nicotinic response mediated by α7 subtype [4] | DA receptor characteristics in normal rats [5] | DA receptor characteristics in rats with unilateral nigral lesion [6]
1 | COc1cc2c(cc1OC)[C@@H]1Cc3ccc(OC)c(OC)c3CN1CC2 [l-THP, l-Tetrahydropalmatine] | inhibition of nAChR function | – | – | – | – | – | – | – | – | –
2 | COc1ccc2c(c1OC)CN1CCc3cc4c(cc3C1C2)OCO4 (stereo not drawn) [THB, Tetrahydroberberine] | inhibition of nAChR function | inhibition of each nAChR subtype function | equipotent effect | accelerates acute desensitization | inhibition of each nAChR subtype function | concentration-dependent inhibition | suppressed nicotinic response depending on VH | inhibitory effect occurs more predominantly in α7-nAChRs | – | –
3 | COc1cc2c(cc1O)[C@@H]1Cc3ccc(O)c(OC)c3CN1CC2 [l-SPD, l-Stepholidine] | inhibition of nAChR function | – | – | – | – | – | – | – | characteristics of D2 receptor antagonist | acts on D1 receptors as an agonist
